From patent publication US9115151B2, “Substituted 2,10-dihydro-9-oxa-1,2,4A-triazaphenanthren-3-ones and uses thereof” (AbbVie Inc., priority 2012, dated 2015)
Structures can show the parent of a compound that is named as a salt. Where two headings read alike, the source gives them in different places.

Assays:
PKCα = target: T1, PKCα (Homo sapiens, UniProt P17252); assay: In vitro enzyme assay (time-resolved fluorescence kinase assay), PKCα, 100 μM ATP; assay type: biochemical
T1 construct: His6; purchased Millipore; host or cells: baculovirus in Sf21 cells
Method: (§1) PKC kinase activity was assayed by time-resolved fluorescence in vitro kinase assay. Unless otherwise indicated, all reagents used for enzyme assays were obtained from Sigma. Specifically, 5 μL N- or C-terminal His6-tagged, recombinant, human PKC, expressed by baculovirus in Sf21 cells (Millipore) was mixed with 5 μL inhibitor (various concentrations, 5% final DMSO), 5 μL Bio-cdc peptide (Biotin-Ahx-[…], 2 μM final concentration, New England Peptide) and 5 μL of ATP (100 μM or 1000 μM final concentration) in 1× reaction buffer, 20 μL final volume.
(§2) Following a sixty minute incubation at room temperature, the reaction was quenched with 5 μL of 0.5 M EDTA pH 7.5.
(§3) Background counts from a minus enzyme control is subtracted from all data. Data (after background correction) are converted to percent activity by dividing by the signal obtained from PKC without drug sample.

PKCθ = target: T2, PKCθ (Homo sapiens, UniProt Q04759); assay: In vitro enzyme assay (time-resolved fluorescence kinase assay), PKCθ, 100 μM ATP; assay type: biochemical
T2 construct: His6; purchased Millipore; host or cells: baculovirus in Sf21 cells
T2 sequence (Q04759 whole entry): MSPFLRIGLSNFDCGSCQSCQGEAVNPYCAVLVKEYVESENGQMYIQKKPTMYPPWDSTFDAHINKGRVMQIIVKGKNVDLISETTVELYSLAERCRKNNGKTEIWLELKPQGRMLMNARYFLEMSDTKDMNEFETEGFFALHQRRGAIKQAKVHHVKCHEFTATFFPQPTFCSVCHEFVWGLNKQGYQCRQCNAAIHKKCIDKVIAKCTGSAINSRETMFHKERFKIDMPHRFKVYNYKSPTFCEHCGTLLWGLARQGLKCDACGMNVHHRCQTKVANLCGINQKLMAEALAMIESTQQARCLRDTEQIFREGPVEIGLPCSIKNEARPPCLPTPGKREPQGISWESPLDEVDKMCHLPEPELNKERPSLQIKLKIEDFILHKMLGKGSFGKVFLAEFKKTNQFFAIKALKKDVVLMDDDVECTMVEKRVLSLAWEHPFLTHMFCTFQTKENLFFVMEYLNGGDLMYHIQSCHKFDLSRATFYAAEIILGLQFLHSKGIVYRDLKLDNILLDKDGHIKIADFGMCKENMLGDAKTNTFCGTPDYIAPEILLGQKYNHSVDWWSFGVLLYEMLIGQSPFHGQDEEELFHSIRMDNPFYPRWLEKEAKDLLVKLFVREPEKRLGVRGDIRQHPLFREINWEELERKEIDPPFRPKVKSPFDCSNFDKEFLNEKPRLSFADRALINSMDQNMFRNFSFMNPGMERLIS
Method: as §1, §2, §3

[1] = tested on: CD3/CD28 induced IL-2 in human T-Blasts; assay: T-Blasts CD3/CD28 induced IL-2 assay; assay type: cell-based; settings: read-out: CD3/CD28-stimulated IL2 in T-blasts EC50
Method: T-Blasts CD3/CD28 Induced IL-2 Assay
Human T-Blasts are generated using PHA following standard protocols. T-Blasts are freeze aliquoted and vials thawed as required. […] Seed 2×10^5/100 μL cell suspension per well in flat bottomed 96 well plate. Compound dilutions are prepared from 100% DMSO stocks. A total of 8 serial dilutions are made (1/3 in 100% DMSO). Compounds are diluted 1/50 in growth medium to prepare 4× stocks of each tested concentration. 50 μL from each 4× stock concentration is added to the 100 μL cell suspension and incubated for 30 minutes prior stimulus addition. A 4× stimulus stock is prepared using anti-CD3+anti-CD28 antibodies. Antibody mix is added to the cell/compounds suspension in 50 μL at 5 μg/mL final concentration. Compounds are tested in duplicates. Plates are transferred to 37° C./CO2 incubator for 24 hours. After incubation 130 μL of supernatant is collected for IL-2 determination while MTT toxicity analysis is performed on remaining cells/medium.

[2] = 100 μM ATP, read-out: PKCα enzyme IC50

Structure (SMILES): Cc1ccc(-c2cc3c(cc2NC2CNC2)N2C(=NNC(=O)C2C)CO3)c(F)c1 (racemic) [Example 12]
- IC50 (PKCα; [2]): 1000 to 10000 nM
- IC50 (PKCθ): < 250 nM
- EC50 [1]: < 250 nM

Structure (SMILES): Cc1cc(F)ccc1-c1cc2c(cc1NC1CNC1)N1C(=NNC(=O)C1C)CO2 (racemic) [Example 13]
- IC50 (PKCα; [2]): 1000 to 10000 nM
- IC50 (PKCθ): < 250 nM
- EC50 [1]: < 250 nM

Structure (SMILES): CC1C(=O)NN=C2COc3cc(-c4ccc(C(F)(F)F)cc4)c(NC4CNC4)cc3N21 (racemic) [Example 14]
- IC50 (PKCα; [2]): 1000 to 10000 nM
- IC50 (PKCθ): 250 to 1000 nM
- EC50 [1]: < 250 nM

Structure (SMILES): Cc1ccc(F)cc1-c1cc2c(cc1NC1CNC1)N1C(=NNC(=O)C1C)CO2 (racemic) [Example 15]
- IC50 (PKCα; [2]): 1000 to 10000 nM
- IC50 (PKCθ): < 250 nM
- EC50 [1]: < 250 nM

Structure (SMILES): CC1C(=O)NN=C2COc3cc(-c4cccc(OC(F)(F)F)c4)c(NC4CNC4)cc3N21 (racemic) [Example 16]
- IC50 (PKCα; [2]): 1000 to 10000 nM
- IC50 (PKCθ): 250 to 1000 nM
- EC50 [1]: < 250 nM

Structure (SMILES): CC1C(=O)NN=C2COc3cc(-c4cccc(Cl)c4)c(NC4CNC4)cc3N21 (racemic) [Example 17]
- IC50 (PKCα; [2]): 1000 to 10000 nM
- IC50 (PKCθ): < 250 nM
- EC50 [1]: < 250 nM

Structure (SMILES): Cc1ccc(-c2cc3c(cc2NC2CNC2)N2C(=NNC(=O)C2C)CO3)cc1F (racemic) [Example 18]
- IC50 (PKCα; [2]): 1000 to 10000 nM
- IC50 (PKCθ): < 250 nM
- EC50 [1]: < 250 nM

Structure (SMILES): CC1C(=O)NN=C2COc3cc(-c4ccc(N(C)C)cc4)c(NC4CNC4)cc3N21 (racemic) [Example 19]
- IC50 (PKCα; [2]): 1000 to 10000 nM
- IC50 (PKCθ): 250 to 1000 nM
- EC50 [1]: < 250 nM

Structure (SMILES): COc1cccc(-c2cc3c(cc2NC2CNC2)N2C(=NNC(=O)C2C)CO3)c1 (racemic) [Example 20]
- IC50 (PKCα; [2]): 1000 to 10000 nM
- IC50 (PKCθ): < 250 nM
- EC50 [1]: < 250 nM

Structure (SMILES): CC1C(=O)NN=C2COc3cc(-c4ccc(OC(F)(F)F)cc4)c(NC4CNC4)cc3N21 (racemic) [Example 21]
- IC50 (PKCα; [2]): 1000 to 10000 nM
- IC50 (PKCθ): 250 to 1000 nM
- EC50 [1]: < 250 nM

Structure (SMILES): Cc1cccc(-c2cc3c(cc2NC2CNC2)N2C(=NNC(=O)C2C)CO3)c1 (racemic) [Example 22]
- IC50 (PKCα; [2]): 1000 to 10000 nM
- IC50 (PKCθ): < 250 nM
- EC50 [1]: < 250 nM

Structure (SMILES): CC1C(=O)NN=C2COc3cc(-c4ccc(F)c(F)c4)c(NC4CNC4)cc3N21 (racemic) [Example 23]
- IC50 (PKCα; [2]): 1000 to 10000 nM
- IC50 (PKCθ): < 250 nM
- EC50 [1]: < 250 nM

Structure (SMILES): CC1C(=O)NN=C2COc3cc(-c4cccc(C(F)(F)F)c4)c(NC4CNC4)cc3N21 (racemic) [Example 24]
- IC50 (PKCα; [2]): 1000 to 10000 nM
- IC50 (PKCθ): 250 to 1000 nM
- EC50 [1]: < 250 nM

Structure (SMILES): CC1C(=O)NN=C2COc3cc(-c4ccc(Cl)c(Cl)c4)c(NC4CNC4)cc3N21 (racemic) [Example 25]
- IC50 (PKCα; [2]): 1000 to 10000 nM
- IC50 (PKCθ): < 250 nM
- EC50 [1]: < 250 nM

Structure (SMILES): CC1C(=O)NN=C2COc3cc(-c4ccc(C(C)(C)C)cc4)c(NC4CNC4)cc3N21 (racemic) [Example 26]
- IC50 (PKCα; [2]): 1000 to 10000 nM
- IC50 (PKCθ): 250 to 1000 nM
- EC50 [1]: < 250 nM

Structure (SMILES): CC1C(=O)NN=C2COc3cc(-c4ccccc4OC(F)(F)F)c(NC4CNC4)cc3N21 (racemic) [Example 27]
- IC50 (PKCα; [2]): 1000 to 10000 nM
- IC50 (PKCθ): < 250 nM
- EC50 [1]: < 250 nM

Structure (SMILES): CC1C(=O)NN=C2COc3cc(-c4ccccc4C(F)(F)F)c(NC4CNC4)cc3N21 (racemic) [Example 28]
- IC50 (PKCα; [2]): 1000 to 10000 nM
- IC50 (PKCθ): < 250 nM
- EC50 [1]: < 250 nM

Structure (SMILES): Cc1ccc(-c2cc3c(cc2NC2CNC2)N2C(=NNC(=O)C2C)CO3)cc1 (racemic) [Example 29]
- IC50 (PKCα; [2]): 1000 to 10000 nM
- IC50 (PKCθ): < 250 nM
- EC50 [1]: < 250 nM

Structure (SMILES): C[C@H]1C(=O)NN=C2COc3cc(C(F)(F)F)c(NC4CNC4)cc3N21 (single isomer, unassigned) [Example 53-1, trifluoroacetic acid]
- IC50 (PKCα; [2]): 1000 to 10000 nM
- EC50 [1]: 250 to 1000 nM

Structure (SMILES): C[C@@H]1C(=O)NN=C2COc3cc(C(F)(F)F)c(NC4CNC4)cc3N21 (single isomer, unassigned) [Example 53-2, trifluoroacetic acid]
- IC50 (PKCα; [2]): 1000 to 10000 nM
- EC50 [1]: < 250 nM

Structure (SMILES): C[C@@H]1C(=O)NN=C2COc3cc(C(F)(F)F)c(NC4(C)CNC4)cc3N21 (single isomer, unassigned) [Example 100-1, trifluoroacetic acid]
- IC50 (PKCα; [2]): 1000 to 10000 nM
- EC50 [1]: < 250 nM

Structure (SMILES): C[C@@H]1C(=O)NN=C2COc3cc(C(F)(F)F)c([C@H](C)C4(C)CNC4)cc3N21 (single isomer, unassigned) [Example 147-2, trifluoroacetic acid]
- IC50 (PKCα; [2]): 1000 to 10000 nM
- IC50 (PKCθ): 1000 to 10000 nM

Structure (SMILES): CC1C(=O)NN=C2COc3cc(C(F)(F)F)c(NC4(C)CNC4)cc3N21 (stereo not drawn) [Example 81, 4-Methyl-6-(3-methyl-azetidin-3-ylamino)-7-trifluoromethyl-2,10-dihydro-9-oxa-1,2,4a-triaza-phenanthren-3-one]
- IC50 (PKCα; [2]): 1000 to 10000 nM
- EC50 [1]: 250 to 1000 nM

Structure (SMILES): Cc1cc2c(cc1NC1(C)CNC1)N1C(=NNC(=O)C1C)CO2 (stereo not drawn) [Example 98, 4,7-Dimethyl-6-(3-methyl-azetidin-3-ylamino)-2,10-dihydro-9-oxa-1,2,4a-triaza-phenanthren-3-one trifluoroacetic acid]
- IC50 (PKCα; [2]): 1000 to 10000 nM
- IC50 (PKCθ): 1000 to 10000 nM

Structure (SMILES): C[C@H]1C(=O)NN=C2COc3cc(C(F)(F)F)c(NC4(C)CNC4)cc3N21 [Example 100-2, (S)-1-Methyl-9-((3-methylazetidin-3-yl)amino)-8-(trifluoromethyl)-3,5-dihydrobenzo[5,6][1,4]oxazino[3,4-c][1,2,4]triazin-2(1H)-one trifluoacetic acid salt]
- IC50 (PKCα; [2]): 250 to 1000 nM
- EC50 [1]: 250 to 1000 nM

Structure (SMILES): CC1NCC1Nc1ccc2c(c1)N1C(=NNC(=O)C1C)CO2 (stereo not drawn) [Example 118, 4-Methyl-6-(2-methyl-azetidin-3-ylamino)-2,10-dihydro-9-oxa-1,2,4a-triaza-phenanthren-3-one trifluoroacetic acid]
- IC50 (PKCα; [2]): 1000 to 10000 nM
- IC50 (PKCθ): 250 to 1000 nM

Structure (SMILES): C[C@H]1C(=O)NN=C2COc3cc4ccn([C@]5(C)CCNC5)c4cc3N21 [Example 165, (S)-1-Methyl-10-((R)-3-methyl-pyrrolidin-3-yl)-3,5-dihydro-10H-6-oxa-3,4,10,11b-tetraaza-cyclopenta[b]phenanthren-2-one]
- IC50 (PKCα; [2]): 1000 to 10000 nM
- IC50 (PKCθ): 250 to 1000 nM

Structure (SMILES): Cc1ccc(-c2cc3c(cc2[C@@H]2CCN(C)C[C@@H]2C)N2C(=NNC(=O)[C@H]2C)CO3)c(F)c1 [Example 200]
- IC50 (PKCα; [2]): < 250 nM
- EC50 [1]: < 250 nM

Structure (SMILES): COc1ccc(-c2cc3c(cc2[C@@H]2CCN(C)C[C@@H]2C)N2C(=NNC(=O)[C@H]2C)CO3)c(F)c1 [Example 201]
- IC50 (PKCα): < 250 nM
- EC50 [1]: < 250 nM

Structure (SMILES): CC1C(=O)NN=C2COc3cc(-c4ccccc4F)c(N4CC5CCC4CN5)cc3N21 (stereo not drawn) [Example 229]
- IC50 (PKCα; [2]): 1000 to 10000 nM
- IC50 (PKCθ): 250 to 1000 nM

Structure (SMILES): COc1cccc(-c2cc3c(cc2[C@@H]2CCN(C)C[C@@H]2C)N2C(=NNC(=O)[C@H]2C)CO3)c1F [Example 237, (R)-6-((3R,4R)-1,3-Dimethyl-piperidin-4-yl)-7-(2-fluoro-3-methoxy-phenyl)-4-methyl-2,10-dihydro-9-oxa-1,2,4a-triaza-phenanthren-3-one]
- IC50 (PKCθ): < 250 nM
- EC50 [1]: < 250 nM

Structure (SMILES): COc1ccc(F)c(-c2cc3c(cc2[C@@H]2CCN(C)C[C@@H]2C)N2C(=NNC(=O)[C@H]2C)CO3)c1 [Example 241]
- IC50 (PKCθ): < 250 nM
- EC50 [1]: < 250 nM

Structure (SMILES): C[C@@H]1C(=O)NN=C2COc3cc(-c4c(F)cccc4F)c([C@@H]4CCN(C)C[C@@H]4C)cc3N21 [Example 245, (R)-7-(2,6-Difluoro-phenyl)-6-((3R,4R)-1,3-dimethyl-piperidin-4-yl)-4-methyl-2,10-dihydro-9-oxa-1,2,4a-triaza-phenanthren-3-one]
- IC50 (PKCα; [2]): 250 to 1000 nM
- EC50 [1]: < 250 nM
